Assay results reported in patent publication EP4759817A1, “HETEROARYL COMPOUND, PREPARATION METHOD THEREFOR, AND USE THEREOF IN MEDICINE” (Jiangsu Hengrui Pharmaceuticals Co., Ltd., priority 2023, dated 2025).

How the values were obtained:
HCT116 MTAP-/- cells = test: HCT116 MTAP-/- cell proliferation assay (CellTiter-Glo, 10 days); format: cell-based; conditions: growth inhibition, CTG assay Day 10
Excerpt: (§1) • I. Experimental materials and instruments • 1. HCT116 cell line (Nanjing Kebai Biotechnology Co., Ltd., CBP60028) • 2. HCT116 MTAP-/- cell line (Nanjing Kebai Biotechnology Co., Ltd., CBP75002) • 3. DMSO (Sigma, D2650) • 4. McCoy's 5A medium (Gibco, 16600-082) • 5. Foetal bovine serum (FBS) (Gibco, 10091148) • 6. Phosphate buffered saline (DPBS) pH 7.4 (Gibco, 14190-144) • 7. Pen strep (PS) (Gibco, 15140-122) • 8. 0.25% Typsin-EDTA (1×) (Gibco, 25200-072) • 9. CellTiter-Glo® Luminescent Cell Viability Assay (Promega, G7572) • 10. 96-well round-bottom plate (JET, TCP002096) • 11. 96-well black clear bottom plate (Hangzhou Xinyou Biotechnology Co., Ltd., 060096) • 12. 1.2 mL 96-well deep well plate, clear, sterile, square-well, V-bottom (Titan, 02089063) • 13. 15-mL centrifuge tube (Titan) • 14. Biosafety cabinet (Thermo, 1300AII) • 15. Cell counter (Countstar, IC1000) • 16. Incubator (Thermo, I160) • 17. Centrifuge (Beckman coulter, Allegra X-12 centrifuge) • 18. PHERAstar FS microplate reader (BMG Labtech) • II. Experimental procedure • 1. Cell plating (Day 0) • a) The cell morphology was observed under a microscope to ensure confluence reached approximately 90%. • b) The cell supernatant was aspirated, the cells were washed once with PBS, and then the PBS was removed; and the cells were digested by adding an appropriate amount of trypsin, and left to stand at 37°C for 3 minutes. • c) The digestion was terminated by adding an equal volume of McCoy's 5A medium containing 10% FBS, and the cell suspension was collected and centrifuged at 300 g for 3 minutes; and the cells were resuspended in an appropriate amount of fresh medium. • d) The resuspended cell suspension was taken for counting. • e) The cell suspension was diluted to 1e4/mL using McCoy's 5A medium containing 10% FBS, and seeded at 50 µL per well, corresponding to 500 cells/well for HCT116 and 500 cells/well for HCT116 MTAP-/-. • f) The cell plate was placed in a 37°C, 5% carbon dioxide incubator and incubated overnight. • 2. Compound treatment (Day 1) • a) Each compound was serially diluted in DMSO to generate a 9-point concentration gradient (starting concentration: 10000 µM, 3-fold dilution; the highest concentration may be adjusted individually based on IC50 of different compounds); for example, in a 96-well round-bottom compound-dilution plate, 5 µL of the compound was sequentially diluted into 10 µL of DMSO. • b) Each concentration point of every compound was then diluted 250-fold into the corresponding volume of McCoy's 5A medium. • c) To each cell plate, 50 µL of the diluted compound solution as described above was added sequentially to the cell supernatant (50 µL/well). • d) The compound-treated cell plate was placed in a 37°C, 5% carbon dioxide incubator and incubated. • 3. Re-digestion, re-plating and compound treatment (Day 5) • a) After 5 days of compound treatment, the compound-containing medium was aspirated, and the cells were rinsed once with PBS (100 µL/well); and the PBS was removed immediately. • b) The cells were digested by adding 25 µL of trypsin and incubated at 37°C for 3 minutes, and then the digestion was terminated by adding 175 µL/well of McCoy's 5A medium containing 10% FBS. • c) The cells were mixed thoroughly using a pipette, and re-plated at 1 : 20; and specifically, 10 µL of the cell suspension was aspirated to a new 96-well plate (pre-filled with 40 µL of McCoy's 5A medium containing 10% FBS. • d) Compounds were prepared and added according to steps a) to c) in Section 2, with 50 µL added per well. • e) The compound-treated cell plate was placed in a 37°C, 5% carbon dioxide incubator and incubated. • 4. […]

HCT116 cells = test: HCT116 cell proliferation assay (CellTiter-Glo, 10 days); format: cell-based; conditions: growth inhibition, CTG assay Day 10
Excerpt: as §1, with “3.” for “3. Re-digestion, re-plating and compound treatment (Day 5) • a) After 5 days of compound treatment, the compound-containing medium was aspirated, and the cells were rinsed once with PBS (100 µL/well); and the PBS was removed immediately. • b) The cells were digested by adding 25 µL of trypsin and incubated at 37°C for 3 minutes, and then the digestion was terminated by adding 175 µL/well of McCoy's 5A medium containing 10% FBS. • c) The cells were mixed thoroughly using a pipette, and re-plated at 1 : 20; and specifically, 10 µL of the cell suspension was aspirated to a new 96-well plate (pre-filled with 40 µL of McCoy's 5A medium containing 10% FBS. • d) Compounds were prepared and added according to steps a) to c) in Section 2, with 50 µL added per well. • e) The compound-treated cell plate was placed in a 37°C, 5% carbon dioxide incubator and incubated. • 4.”

[1] = biological target: T1, Recombinant human PRMT5: MEP50 protein (Homo sapiens, UniProt O14744); test: Inhibitory activity against human PRMT5 enzymatic activity (HTRF quantification of SAH, +MTA); format: biochemical; conditions: +1 µM MTA; histone H4 peptide substrate (1-21), SAM; 37°C 120 min
T1 construct: purchased active motif 31521
T1 sequence (O14744 whole entry): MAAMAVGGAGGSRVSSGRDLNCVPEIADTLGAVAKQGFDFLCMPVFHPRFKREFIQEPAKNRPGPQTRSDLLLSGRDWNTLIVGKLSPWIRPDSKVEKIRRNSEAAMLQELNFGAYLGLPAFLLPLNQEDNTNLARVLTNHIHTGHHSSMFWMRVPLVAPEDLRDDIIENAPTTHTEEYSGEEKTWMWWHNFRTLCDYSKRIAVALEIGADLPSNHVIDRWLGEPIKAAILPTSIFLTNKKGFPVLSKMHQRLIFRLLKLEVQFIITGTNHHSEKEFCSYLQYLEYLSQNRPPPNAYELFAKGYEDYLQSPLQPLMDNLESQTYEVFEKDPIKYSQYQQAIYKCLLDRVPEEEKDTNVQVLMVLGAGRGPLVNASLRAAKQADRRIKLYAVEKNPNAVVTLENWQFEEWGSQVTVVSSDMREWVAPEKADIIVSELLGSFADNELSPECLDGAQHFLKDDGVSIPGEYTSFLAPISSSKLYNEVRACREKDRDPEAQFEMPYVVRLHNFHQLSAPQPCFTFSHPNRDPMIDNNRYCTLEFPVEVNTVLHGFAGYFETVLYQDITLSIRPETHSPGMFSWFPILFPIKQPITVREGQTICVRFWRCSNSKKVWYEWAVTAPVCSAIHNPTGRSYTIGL
T1 sequence (Q9BQA1 whole entry partner): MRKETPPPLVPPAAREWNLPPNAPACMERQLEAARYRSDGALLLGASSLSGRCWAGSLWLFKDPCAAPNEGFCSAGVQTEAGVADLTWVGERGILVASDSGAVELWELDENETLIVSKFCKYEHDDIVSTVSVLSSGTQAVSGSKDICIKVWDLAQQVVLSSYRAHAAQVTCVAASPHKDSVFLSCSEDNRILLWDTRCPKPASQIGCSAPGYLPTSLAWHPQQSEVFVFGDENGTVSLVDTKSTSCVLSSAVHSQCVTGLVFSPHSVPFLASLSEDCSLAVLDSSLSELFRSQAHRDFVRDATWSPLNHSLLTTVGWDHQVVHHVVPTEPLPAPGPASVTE
Procedure: • 1. Recombinant human PRMT5: MEP50 protein (active motif, 31521) • 2. EPIgeneous Methyltransferase kit (cisbio, 62SAHPEH) • 3. 96-well plate (Sangon Biotech, F610960-0010) • 4. 384-well white plate (Perkin Elmer, 6007290) • 5. 1 M Tris-HCl [pH 8.5] (Sangon Biotech, B548141) • 6. Histone H4 peptide substrates (1-21) (BPS bioscience, 52014) • 7. 5'-deoxy-5'-(methylthio)adenosine (Aladdin, D168979-25 mg) • 8. Tween-20 (Sangon Biotech, A100777-0500) • 9. DMSO (Sigma, D2650) • 10. Incubator (Shanghai Boxun Medical Biological Instrument Corp.) • 11. PHERAstar FS microplate reader (BMG Labtech)
PRMT5 can induce the transfer of a methyl group from S-adenosylmethionine (SAM) to a histone H4 peptide substrate (1-21), generating S-adenosylhomocysteine (SAH). In this experiment, the amount of SAH produced in the reaction is quantified using a Homogeneous Time-Resolved Fluorescence (HTRF) method to evaluate the inhibitory activity of compounds against PRMT5 enzymatic activity.
The sample diluent containing (or not containing) 1 µM 5 '-deoxy-5' - (methylthiyl) adenosine (MTA) was prepared using the EPIgeneous Diluent Buffer from the EPIgeneous Methyltransferase kit. With reference to the instructions, SAM and SAH standards were serially diluted and dispensed at 10 µL per well (in duplicate for each concentration). 2 µL of EPIgeneous Detection Buffer 1 was added to each well, and the plate was centrifuged, shaken to mix thoroughly, and placed at room temperature for 10 min. The SAH d2 Reagent was diluted 32-fold with EPIgeneous Detection Buffer 2, and 4 µL of the diluted SAH-d2 solution was added to each well. The plate was centrifuged and shaken for 2 min to mix thoroughly. The SAH Tb Cryptate Antibody was diluted 50-fold in EPIgeneous Detection Buffer 2. 4 µL of the diluted Tb Cryptate Antibody solution was added to each well, and the plate was centrifuged, shaken for 2 min to mix thoroughly, and left to stand at room temperature for 60 min, followed by reading on a PHERAstar FS microplate reader to obtain the 665/620 ratio. Plotting SAH concentration against the ratio to generate an x-y curve yields a corresponding calculation formula.
Reaction buffer (1×): 50 mM Tris-HCl [pH 8.5], 1 mM DTT, 0.005% Tween-20.
Compound preparation: a 20 mM solution of test compound in 100% DMSO was diluted in 100% DMSO to 1 mM as the highest concentration, and the solution at this concentration was then subjected to a 10-point, 3-fold serial dilution in 100% DMSO in a 96-well plate. Wells containing 100% DMSO served as the blank control. The above-described serially diluted compounds and the 100% DMSO were diluted 20-fold with the reaction buffer to prepare 5× compound solutions, which were mixed thoroughly for use.
The PRMT5:MEP50 was diluted in the reaction buffer to a final concentration of 12.5 nM. Then, 4 µL of the 12.5 nM PRMT5:MEP50 solution was added to each well of a 384-well plate. Wells containing 4 µL of the reaction buffer served as the negative control wells. 2 µL of the 5× compound solution was added to each well. For the negative control wells (no enzyme, no compound) and the positive control wells (no compound), 2 µL of 5% DMSO was added. The plate was sealed with a membrane, centrifuged, shaken for 2 min to mix thoroughly, and placed at room temperature for 20 min.
Preparation of substrate mixture solution: The substrate mixture solution containing 1.5 µM histone H4 peptide substrate (1-21) and 2.5 µM SAM, or 1.5 µM histone H4 peptide substrate (1-21), 2.5 µM SAM and 2.5 µM MTA was prepared in the reaction buffer.
The reaction was initiated by adding 4 µL of the substrate mixture solution (-/+ MTA) to each well. The plate was sealed with a membrane, centrifuged, shaken for 2 min to mix thoroughly, and incubated at 37°C for 120 min in a constant temperature incubator.
Detection: The detection was performed by using the EPIgeneous Methyltransferase kit. […]

Row | IC50 (HCT116 MTAP-/- cells) [nM] | IC50 (HCT116 cells) [nM] | IC50 [1] [nM] | IC50 (HCT116 MTAP-/- cells; Homo sapiens, HCT-116, 240 h) [nM] | IC50 (HCT116 cells; Homo sapiens, HCT-116, 240 h) [nM] | SMILES
1 | 13.3 | 2350 |  |  |  | Cn1ncc(-c2ccc3c(=O)[nH]nc(CN)c3c2)c1-c1c(F)cc2c(c1C#N)O[C@@H]1CC[C@@H]1O2 (atropisomer, axis not shown; (M)) [Compound 1-p2, (M)-(2aR,8aS)-5-(4-(4-(aminomethyl)-1-oxo-1,2-dihydrophthalazin-6-yl)-1-methyl-1H-pyrazol-5-yl)-6-fluoro-1,2,2a,8a-tetrahydrobenzo[b]cyclobuta[e][1,4]dioxine-4-carbonitrile]
2 |  |  | 2.8 | 15 |  | [2H]C([2H])([2H])n1ncc(-c2ccc3c(=O)[nH]nc(CN)c3c2)c1-c1c(F)c(Cl)c2c(c1C#N)N1CCC[C@H]1CO2 (atropisomer, axis not shown; (M)) [Compound 13-p1, (M)-(S)-8-(4-(4-(aminomethyl)-1-oxo-1,2-dihydrophthalazin-6-yl)-1-(methyl-d3)-1H-pyrazol-5-yl)-6-chloro-7-fluoro-2,3,3a,4-tetrahydro-1H-benzo[b]pyrrolo[1,2-d][1,4]oxazine-9-carbonitrile]
3 |  |  | 7.01 | 13.5 | 2370 | [2H]C([2H])([2H])n1ncc(-c2ccc3c(=O)[nH]nc(CN)c3c2)c1-c1c(F)cc2c(c1C#N)O[C@@H]1CC[C@@H]1O2 (single isomer, unassigned) [Compound 2-p2]
